Data reported in patent US20240300932A1, “N-PHENYLIMINE DERIVATIVE AND PREPARATION METHOD AND USE THEREOF” (Guizhou University, priority 2023, published 2024).

Key:
Assay in all cases: Post-emergence herbicidal activity test (stem and leaf spray, pot culture)
Assay type in all cases: in vivo
Details in all cases: 3 weeks after spraying
Abutilon theophrasti = test system: Abutilon theophrasti
Outline: (§1)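 Activity is given as a 0–5 grade of fresh weight growth control, scored three weeks after a single stem-and-leaf spray. Weeds in farmland loam were treated at the 2- to 3-leaf stage at 10, 5 and 2.5 g/mu, with methyl oleate added as synergist.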

Setaria viridis = test system: Setaria viridis
Outline: as §1

Portulaca oleracea = test system: Portulaca oleracea
Outline: as §1

Amaranthus retroflexus = test system: Amaranthus retroflexus
Outline: as §1

Echinochloa crusgalli = test system: Echinochloa crusgalli
Outline: as §1

Trifoliumre pensL. = test system: Trifoliumre pensL.
Outline: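 Rates of 10, 5 and 2.5 g/mu were applied in a single spray-tower treatment to 2–3-leaf plants, thinned to 10 per pot. Formulation: acetone solution, Tween 80, 1.5 L/ha methyl oleate synergist. Weed response assessed after 3 further greenhouse weeks; mean of three experiments.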

SMILES	Post-emergence herbicidal activity, A. theophrasti (grade) (Abutilon theophrasti; dosage 2.5 g/mu)	Post-emergence herbicidal activity, A. theophrasti (grade) (Abutilon theophrasti; dosage 5 g/mu)	Post-emergence herbicidal activity, A. theophrasti (grade) (Abutilon theophrasti; dosage 10 g/mu)	Post-emergence herbicidal activity, S. viridis (grade) (Setaria viridis; dosage 2.5 g/mu)	Post-emergence herbicidal activity, S. viridis (grade) (Setaria viridis; dosage 5 g/mu)	Post-emergence herbicidal activity, S. viridis (grade) (Setaria viridis; dosage 10 g/mu)	Post-emergence herbicidal activity, P. oleracea (grade) (Portulaca oleracea; dosage 2.5 g/mu)	Post-emergence herbicidal activity, P. oleracea (grade) (Portulaca oleracea; dosage 5 g/mu)	Post-emergence herbicidal activity, P. oleracea (grade) (Portulaca oleracea; dosage 10 g/mu)	Post-emergence herbicidal activity, A. retroflexus (grade) (Amaranthus retroflexus; dosage 2.5 g/mu)	Post-emergence herbicidal activity, A. retroflexus (grade) (Amaranthus retroflexus; dosage 5 g/mu)	Post-emergence herbicidal activity, A. retroflexus (grade) (Amaranthus retroflexus; dosage 10 g/mu)	Post-emergence herbicidal activity, E. crusgalli (grade) (Echinochloa crusgalli; dosage 2.5 g/mu)	Post-emergence herbicidal activity, E. crusgalli (grade) (Echinochloa crusgalli; dosage 5 g/mu)	Post-emergence herbicidal activity, E. crusgalli (grade) (Echinochloa crusgalli; dosage 10 g/mu)	Post-emergence herbicidal activity, Trifoliumre pensL. (grade) (Trifoliumre pensL.; dosage 2.5 g/mu)	Post-emergence herbicidal activity, Trifoliumre pensL. (grade) (Trifoliumre pensL.; dosage 5 g/mu)	Post-emergence herbicidal activity, Trifoliumre pensL. (grade) (Trifoliumre pensL.; dosage 10 g/mu)
Cc1ccc(-c2noc(COc3cc(N4C(=O)C5=C(CCCC5)C4=O)c(F)cc3Cl)n2)c(Cl)c1 [Compound A15]	5 (Grade 5: the growth control rate is greater than or equal to 85%)	5 (Grade 5: the growth control rate is greater than or equal to 85%)	5 (Grade 5: the growth control rate is greater than or equal to 85%)	2 (Grade 2: the growth control rate is greater than or equal to 20% and less than 40%)	3 (Grade 3: the growth control rate is greater than or equal to 40% and less than 60%)	4 (Grade 4: the growth control rate is greater than or equal to 60% and less than 85%)	5 (Grade 5: the growth control rate is greater than or equal to 85%)	5 (Grade 5: the growth control rate is greater than or equal to 85%)	5 (Grade 5: the growth control rate is greater than or equal to 85%)	5 (Grade 5: the growth control rate is greater than or equal to 85%)	5 (Grade 5: the growth control rate is greater than or equal to 85%)	5 (Grade 5: the growth control rate is greater than or equal to 85%)	1 (Grade 1: the growth control rate is greater than or equal to 5% and less than 20%)	2 (Grade 2: the growth control rate is greater than or equal to 20% and less than 40%)	3 (Grade 3: the growth control rate is greater than or equal to 40% and less than 60%)	5 (Grade 5: the growth control rate is greater than or equal to 85%)	5 (Grade 5: the growth control rate is greater than or equal to 85%)	5 (Grade 5: the growth control rate is greater than or equal to 85%)
O=C1C2=C(CCCC2)C(=O)N1c1cc(OCc2nc(-c3ccc(Cl)nc3Cl)no2)c(Cl)cc1F [Compound A16]	5 (Grade 5: the growth control rate is greater than or equal to 85%)	5 (Grade 5: the growth control rate is greater than or equal to 85%)	5 (Grade 5: the growth control rate is greater than or equal to 85%)	2 (Grade 2: the growth control rate is greater than or equal to 20% and less than 40%)	3 (Grade 3: the growth control rate is greater than or equal to 40% and less than 60%)	4 (Grade 4: the growth control rate is greater than or equal to 60% and less than 85%)	4 (Grade 4: the growth control rate is greater than or equal to 60% and less than 85%)	5 (Grade 5: the growth control rate is greater than or equal to 85%)	5 (Grade 5: the growth control rate is greater than or equal to 85%)	5 (Grade 5: the growth control rate is greater than or equal to 85%)	5 (Grade 5: the growth control rate is greater than or equal to 85%)	5 (Grade 5: the growth control rate is greater than or equal to 85%)	1 (Grade 1: the growth control rate is greater than or equal to 5% and less than 20%)	2 (Grade 2: the growth control rate is greater than or equal to 20% and less than 40%)	3 (Grade 3: the growth control rate is greater than or equal to 40% and less than 60%)	4 (Grade 4: the growth control rate is greater than or equal to 60% and less than 85%)	5 (Grade 5: the growth control rate is greater than or equal to 85%)	5 (Grade 5: the growth control rate is greater than or equal to 85%)
O=C1C2=C(CCCC2)C(=O)N1c1cc(OCc2nc(-c3cccc(C(F)(F)F)c3)no2)c(Cl)cc1F [Compound A17]	5 (Grade 5: the growth control rate is greater than or equal to 85%)	5 (Grade 5: the growth control rate is greater than or equal to 85%)	5 (Grade 5: the growth control rate is greater than or equal to 85%)	2 (Grade 2: the growth control rate is greater than or equal to 20% and less than 40%)	3 (Grade 3: the growth control rate is greater than or equal to 40% and less than 60%)	4 (Grade 4: the growth control rate is greater than or equal to 60% and less than 85%)	4 (Grade 4: the growth control rate is greater than or equal to 60% and less than 85%)	5 (Grade 5: the growth control rate is greater than or equal to 85%)	5 (Grade 5: the growth control rate is greater than or equal to 85%)	5 (Grade 5: the growth control rate is greater than or equal to 85%)	5 (Grade 5: the growth control rate is greater than or equal to 85%)	5 (Grade 5: the growth control rate is greater than or equal to 85%)	1 (Grade 1: the growth control rate is greater than or equal to 5% and less than 20%)	2 (Grade 2: the growth control rate is greater than or equal to 20% and less than 40%)	3 (Grade 3: the growth control rate is greater than or equal to 40% and less than 60%)	4 (Grade 4: the growth control rate is greater than or equal to 60% and less than 85%)	5 (Grade 5: the growth control rate is greater than or equal to 85%)	5 (Grade 5: the growth control rate is greater than or equal to 85%)
O=C1C2=C(CCCC2)C(=O)N1c1cc(OCc2nc(-c3ccccc3C(F)(F)F)no2)c(Cl)cc1F [Compound A18]	5 (Grade 5: the growth control rate is greater than or equal to 85%)	5 (Grade 5: the growth control rate is greater than or equal to 85%)	5 (Grade 5: the growth control rate is greater than or equal to 85%)	2 (Grade 2: the growth control rate is greater than or equal to 20% and less than 40%)	3 (Grade 3: the growth control rate is greater than or equal to 40% and less than 60%)	4 (Grade 4: the growth control rate is greater than or equal to 60% and less than 85%)	4 (Grade 4: the growth control rate is greater than or equal to 60% and less than 85%)	5 (Grade 5: the growth control rate is greater than or equal to 85%)	5 (Grade 5: the growth control rate is greater than or equal to 85%)	5 (Grade 5: the growth control rate is greater than or equal to 85%)	5 (Grade 5: the growth control rate is greater than or equal to 85%)	5 (Grade 5: the growth control rate is greater than or equal to 85%)	1 (Grade 1: the growth control rate is greater than or equal to 5% and less than 20%)	2 (Grade 2: the growth control rate is greater than or equal to 20% and less than 40%)	3 (Grade 3: the growth control rate is greater than or equal to 40% and less than 60%)	4 (Grade 4: the growth control rate is greater than or equal to 60% and less than 85%)	5 (Grade 5: the growth control rate is greater than or equal to 85%)	5 (Grade 5: the growth control rate is greater than or equal to 85%)
